The values that follow come from ChEMBL document CHEMBL1157069, “JBIR-22, an inhibitor for protein-protein interaction of the homodimer of proteasome assembly factor 3” (J Nat Prod, 2010).

Assay [1] deals with HeLa. Put plainly: Cytotoxicity against human HeLa cells after 120 hrs by WST8 assay. It is filed as functional, cell-based. For orientation: Tetrazolium dyes change colour on reduction, which living cells bring about.
Assay [2] has as its target T1, Proteasome assembly chaperone 3 (Homo sapiens, UniProt Q9BT73).
T1 sequence (Q9BT73 whole entry): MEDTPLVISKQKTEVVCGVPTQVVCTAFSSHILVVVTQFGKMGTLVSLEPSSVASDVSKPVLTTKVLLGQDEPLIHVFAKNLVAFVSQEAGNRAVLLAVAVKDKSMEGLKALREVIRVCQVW
Put plainly: Inhibition of PAC3 homodimerization by protein fragment complementation assay.

The target of another assay is T2, PAC1-PAC2 complex (Homo sapiens, UniProt O95456+Q969U7).
T2 sequence (O95456 whole entry): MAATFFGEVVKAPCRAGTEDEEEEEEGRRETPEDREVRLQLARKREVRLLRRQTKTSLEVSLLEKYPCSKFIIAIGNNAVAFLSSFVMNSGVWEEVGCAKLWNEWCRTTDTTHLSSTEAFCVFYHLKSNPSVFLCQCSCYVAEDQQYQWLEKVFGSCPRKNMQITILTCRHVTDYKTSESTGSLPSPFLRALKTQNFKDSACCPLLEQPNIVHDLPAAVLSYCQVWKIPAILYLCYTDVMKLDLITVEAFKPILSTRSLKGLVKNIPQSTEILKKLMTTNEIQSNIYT
T2 sequence (Q969U7 whole entry): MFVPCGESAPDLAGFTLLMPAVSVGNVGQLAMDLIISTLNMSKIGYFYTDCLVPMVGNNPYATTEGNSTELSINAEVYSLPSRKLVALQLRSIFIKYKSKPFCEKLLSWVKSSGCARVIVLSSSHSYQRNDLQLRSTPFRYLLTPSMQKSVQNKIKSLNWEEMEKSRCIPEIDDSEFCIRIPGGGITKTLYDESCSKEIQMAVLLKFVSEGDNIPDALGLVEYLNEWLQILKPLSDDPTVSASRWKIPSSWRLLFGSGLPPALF
Kind of assay: Inhibition of PAC1/PAC2 interaction by protein fragment complementation assay. It is filed as protein-complex assay.

The target of assay [3] is Catenin beta-1/Transcription factor 7 (Homo sapiens, UniProt P35222+P36402). Kind of assay: Inhibition of T cell factor7/beta-catenin interaction by protein fragment complementation assay. The format is cell-based.
Sequence of Catenin beta-1/Transcription factor 7 (P36402 whole entry, the tested form may be a part): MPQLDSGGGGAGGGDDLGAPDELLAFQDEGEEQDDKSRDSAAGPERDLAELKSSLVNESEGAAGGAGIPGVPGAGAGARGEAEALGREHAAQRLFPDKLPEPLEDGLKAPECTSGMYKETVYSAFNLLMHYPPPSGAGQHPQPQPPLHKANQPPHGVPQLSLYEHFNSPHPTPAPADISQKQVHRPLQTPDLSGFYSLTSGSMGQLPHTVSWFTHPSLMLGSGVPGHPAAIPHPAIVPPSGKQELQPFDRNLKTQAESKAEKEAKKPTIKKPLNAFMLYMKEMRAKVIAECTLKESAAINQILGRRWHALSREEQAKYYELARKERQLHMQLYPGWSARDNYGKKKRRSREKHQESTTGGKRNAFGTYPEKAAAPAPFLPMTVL
Sequence of Catenin beta-1/Transcription factor 7 (P35222 whole entry, the tested form may be a part): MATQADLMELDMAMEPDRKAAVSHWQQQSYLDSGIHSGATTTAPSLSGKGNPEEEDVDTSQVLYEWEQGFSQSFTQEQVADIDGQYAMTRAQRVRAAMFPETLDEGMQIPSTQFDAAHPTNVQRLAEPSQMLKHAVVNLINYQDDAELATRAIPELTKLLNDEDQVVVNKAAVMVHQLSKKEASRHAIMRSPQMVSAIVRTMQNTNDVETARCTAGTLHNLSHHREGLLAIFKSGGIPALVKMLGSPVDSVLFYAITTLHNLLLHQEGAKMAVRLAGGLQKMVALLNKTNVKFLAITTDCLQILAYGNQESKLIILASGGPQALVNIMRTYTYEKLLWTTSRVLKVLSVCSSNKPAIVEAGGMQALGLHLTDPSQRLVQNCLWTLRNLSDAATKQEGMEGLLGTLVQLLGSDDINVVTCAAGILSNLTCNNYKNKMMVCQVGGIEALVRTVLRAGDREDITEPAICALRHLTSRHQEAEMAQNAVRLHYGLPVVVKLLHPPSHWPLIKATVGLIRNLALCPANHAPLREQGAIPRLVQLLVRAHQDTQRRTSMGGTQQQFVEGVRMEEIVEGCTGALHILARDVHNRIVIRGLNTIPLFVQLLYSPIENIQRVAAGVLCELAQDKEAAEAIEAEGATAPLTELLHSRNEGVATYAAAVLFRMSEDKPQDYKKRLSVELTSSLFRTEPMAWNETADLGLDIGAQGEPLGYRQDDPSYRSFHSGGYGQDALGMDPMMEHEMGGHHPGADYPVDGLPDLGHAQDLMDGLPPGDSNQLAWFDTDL
For assay [4], the system named is HeLa. Put plainly: Cytotoxicity against human HeLa cells after 48 hrs by WST8 assay. The format is functional, cell-based.

As a reminder, the IC50 is the concentration that gives 50% inhibition. As to `CC(C)[C@@](O)(C[C@H]1C(=O)/C(=C(\O)[C@H]2[C@@H]3CCCC[C@H]3C=C[C@H]2C)C(=O)N1C)C(=O)O`, the IC50 is 68000 nM in the assay with HeLa [1], 200 nM in assay [2], 6 µM against PAC1-PAC2 complex and 6 µM in assay [3].

With `COc1cccc2c1C(=O)c1c(O)c3c(c(O)c1C2=O)C[C@@](O)(C(=O)CO)C[C@@H]3O[C@H]1C[C@H](N)[C@H](O)[C@H](C)O1` [DOXORUBICIN], the figures for the half-inhibitory concentration (IC50) in the assay on HeLa [1] and with HeLa [4] were 55 nM and 37 nM, respectively.

Turning to `CC(=O)O[C@H]1C(=O)[C@@]2(C)[C@H]([C@H](OC(=O)c3ccccc3)[C@]3(O)C[C@H](OC(=O)[C@H](O)[C@@H](NC(=O)c4ccccc4)c4ccccc4)C(C)=C1C3(C)C)[C@]1(OC(C)=O)CO[C@@H]1C[C@@H]2O` [PACLITAXEL], the concentration for half-maximal inhibition (IC50) is 190 nM in the assay with HeLa [1] and 30 nM in the assay with HeLa [4].
